Results on two compounds are retold here after patent US20120100067A1, “Solubilisation Method” (MEDIGENE AG, priority 2008, published 2012).

Each structure is given as a SMILES string.

The nature of series [1]: Solubilisation of Camptothecin by DOTAP/DOPC liposomes, UV/Vis at 369 nm. The class given is physicochemical. The settings on record: for concentration of solubilized Camptothecin: 10% trehalose. Here is the method:
Treated and untreated liposomal formulations were exposed to Camptothecin as described for Paclitaxel in Example 2.1. The concentration of solubilized Camptothecin was determined by UV/Vis-spectroscopy (Beckmann DU 640, Beckmann Coulter, Germany) at 369 nm after dilution in methanol.

The conditions of series [2]: cited from earlier work.
Series [3] can be described thus: Solubilisation of dry Paclitaxel by empty liposomes, filtration, HPLC quantification.
Method: The Agilent 1100 Series HPLC System (Agilent Technologies, Palo Alto, Calif., USA) consisted of a quaternary pump, an autosampler, a column thermostat and an on-line degasser. A LiChrospher 60 RP (5 μm, 4×250 mm) analytical column (Merck, Darmstadt, Germany) was used. The flow rate of the mobile phase, consisting of 32% (v/v) acetonitrile, 12% tetrahydrofuran and 56% ammoniumacetat (2 mM in water, pH value set to 4.8 with acetic acid) was set at 1 ml/min.

`CC[C@@]1(O)C(=O)OCc2c1cc1n(c2=O)Cc2cc3ccccc3nc2-1` [Camptothecin]: the “enhancement of concentration of solubilized agent, pre-treated versus untreated (factor)” value in series [1] (DOTAP/DOPC 50/50 10 mM) is “factor of about three”. In addition, the “concentration of solubilized Camptothecin” value turned out to be 52 µM in series [1] (pre-treated DOTAP/DOPC 50/50 10 mM) and 18 µM in series [1] (untreated DOTAP/DOPC 50/50 10 mM).

As to `CC(=O)O[C@H]1C(=O)[C@@]2(C)[C@H]([C@H](OC(=O)c3ccccc3)[C@]3(O)C[C@H](OC(=O)[C@H](O)[C@@H](NC(=O)c4ccccc4)c4ccccc4)C(C)=C1C3(C)C)[C@]1(OC(C)=O)CO[C@@H]1C[C@@H]2O` [Paclitaxel], the “solubility of paclitaxel in a corresponding aqueous buffer” value in series [2] (aqueous buffer without liposomes) is given as “below 1 μM”. Also, in series [2] (water), the “solubility of paclitaxel in water” value is given as “below 1 μg/ml”. Further, the “expected amount of solubilised Paclitaxel” value in series [3] (100 mM liposome preparation, freeze/thaw treated, extrapolated from solubilisation factor) was 4 mM. Besides, the “loading capacity of single-lipid liposomes after freezing/thawing” value in series [3] (100% DOTAP and 100% DOPC liposomes, 10 mM) is given as “improved”. The “solubility of Paclitaxel in liposomal preparations versus liquid formulation without pre-treatment” value in series [3] (DOTAP/DOPC 50/50 10 mM, spray dried, spray freeze-dried, freeze-dried, frozen) is reported as “elevated”. For the same compound, the “amount of solubilised Paclitaxel, freeze/thawed versus untreated (factor)” value in series [3] (DOTAP/DOPC 50/50, at a given lipid concentration) is “about a factor of four higher”. Besides, in series [3] (DOTAP/DOPC 50/50 liposomes, 10-35 mM lipid, 10% trehalose, after freezing/thawing, 3 h), the “concentration of solubilised Paclitaxel (maximum obtained)” value is “up to 1600 μM”. In series [3] (DOTAP/DOPC mixtures 25/75, 50/50, 75/25, 10 mM lipid, freeze/thaw), the “loading capacity, treated versus untreated lipid dispersions (factor)” value was “about a factor of four higher”. In addition, the “loading capacity of binary lipid mixtures after freeze/thawing” value in series [3] (DOTAP/DOPC, DOTAP/DSPC, DSTAP/DSPC 50/50) is “substantially improved”. Further, the “improvement of loading capacity, untreated versus treated liposomes (factor)” value in series [3] (DOTAP/DSPC 50/50 liposomes, freeze/thaw) turned out to be 5. The “loading at 15 min incubation compared with 3 hour incubation” value in series [3] (freeze-dried, rehydrated DOTAP/DOPC 50/50 liposomes) is “not lower”. Also, the “solubilised concentration of Paclitaxel” value in series [3] (per 1 mM of untreated DOTAP/DOPC) is 10 µM.
